# Assay results: PubChem BioAssay (NCI)
#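 1) Cells in 96-well plates. 2) Compound, 48 h, 5 concentrations. 3) Linear interpolation between surrounding doses. 4) Unreached endpoint = highest concentration. GI50 is the concentration that inhibits growth by half. TGI marks complete inhibition of growth.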
# Experiments:
# Assay in all cases: inhibition of tumour cell growth, NCI panel, 48 h
# 786-0 renal = tested on: 786-0 renal
# A498 renal = tested on: A498 renal
# A549 NSCLC = tested on: A549 NSCLC
# ACHN renal = tested on: ACHN renal
# BT-549 breast = tested on: BT-549 breast
# CAKI-1 renal = tested on: CAKI-1 renal
# CCRF-CEM leukemia = tested on: CCRF-CEM leukemia
# COLO 205 colon = tested on: COLO 205 colon
# DU-145 prostate = tested on: DU-145 prostate
# EKVX NSCLC = tested on: EKVX NSCLC
# HCC-2998 colon = tested on: HCC-2998 colon
# HCT-116 colon = tested on: HCT-116 colon
# HCT-15 colon = tested on: HCT-15 colon
# HL-60(TB) leukemia = tested on: HL-60(TB) leukemia
# HOP-62 NSCLC = tested on: HOP-62 NSCLC
# HOP-92 NSCLC = tested on: HOP-92 NSCLC
# HS 578T breast = tested on: HS 578T breast
# HT29 colon = tested on: HT29 colon
# IGROV1 ovarian = tested on: IGROV1 ovarian
# K-562 leukemia = tested on: K-562 leukemia
# KM12 colon = tested on: KM12 colon
# LOX IMVI melanoma = tested on: LOX IMVI melanoma
# M14 melanoma = tested on: M14 melanoma
# MALME-3M melanoma = tested on: MALME-3M melanoma
# MCF7 breast = tested on: MCF7 breast
# MDA-MB-231 breast = tested on: MDA-MB-231 breast
# MDA-MB-435 = tested on: MDA-MB-435
# MDA-MB-468 breast = tested on: MDA-MB-468 breast
# MOLT-4 leukemia = tested on: MOLT-4 leukemia
# NCI-H226 lung = tested on: NCI-H226 lung
# NCI-H23 lung = tested on: NCI-H23 lung
# NCI-H460 lung = tested on: NCI-H460 lung
# NCI-H522 lung = tested on: NCI-H522 lung
# OVCAR-3 ovarian = tested on: OVCAR-3 ovarian
# OVCAR-4 ovarian = tested on: OVCAR-4 ovarian
# OVCAR-5 ovarian = tested on: OVCAR-5 ovarian
# OVCAR-8 ovarian = tested on: OVCAR-8 ovarian
# PC-3 prostate = tested on: PC-3 prostate
# RPMI-8226 leukemia = tested on: RPMI-8226 leukemia
# RXF 393 renal = tested on: RXF 393 renal
# SF-268 CNS = tested on: SF-268 CNS
# SF-295 CNS = tested on: SF-295 CNS
# SF-539 CNS = tested on: SF-539 CNS
# SK-MEL-2 melanoma = tested on: SK-MEL-2 melanoma
# SK-MEL-28 melanoma = tested on: SK-MEL-28 melanoma
# SK-MEL-5 melanoma = tested on: SK-MEL-5 melanoma
# SK-OV-3 ovarian = tested on: SK-OV-3 ovarian
# SN12C renal = tested on: SN12C renal
# SNB-19 CNS = tested on: SNB-19 CNS
# SNB-75 CNS = tested on: SNB-75 CNS
# SR leukemia = tested on: SR leukemia
# SW-620 colon = tested on: SW-620 colon
# T-47D breast = tested on: T-47D breast
# TK-10 renal = tested on: TK-10 renal
# U251 CNS = tested on: U251 CNS
# UACC-257 melanoma = tested on: UACC-257 melanoma
# UACC-62 melanoma = tested on: UACC-62 melanoma
# UO-31 renal = tested on: UO-31 renal
compound,measurement,setting,value
O=C(O)c1ccc(-c2ccc(/C=N/NC(=O)c3[nH]c4ccc(Br)cc4c3-c3ccccc3)s2)cc1,GI50,786-0 renal,3.13 µM
same,TGI,786-0 renal,11 µM
same,GI50,A498 renal,20.7 µM
same,TGI,A498 renal,52 µM
same,GI50,A549 NSCLC,13.5 µM
same,TGI,A549 NSCLC,44.6 µM
same,GI50,ACHN renal,11.4 µM
same,TGI,ACHN renal,55.7 µM
same,GI50,BT-549 breast,1.95 µM
same,TGI,BT-549 breast,5.83 µM
same,GI50,CAKI-1 renal,21.1 µM
same,TGI,CAKI-1 renal,64.1 µM
same,GI50,CCRF-CEM leukemia,4.44 µM
same,TGI,CCRF-CEM leukemia,26.9 µM
same,GI50,COLO 205 colon,16.1 µM
same,TGI,COLO 205 colon,33.9 µM
same,GI50,DU-145 prostate,24.9 µM
same,TGI,DU-145 prostate,> 100 µM
same,GI50,EKVX NSCLC,14.4 µM
same,TGI,EKVX NSCLC,39.1 µM
same,GI50,HCC-2998 colon,11.8 µM
same,TGI,HCC-2998 colon,27.3 µM
same,GI50,HCT-116 colon,3.7 µM
same,TGI,HCT-116 colon,12.6 µM
same,GI50,HCT-15 colon,5.27 µM
same,TGI,HCT-15 colon,20 µM
same,GI50,HL-60(TB) leukemia,4.31 µM
same,TGI,HL-60(TB) leukemia,25 µM
same,GI50,HOP-62 NSCLC,12.3 µM
same,TGI,HOP-62 NSCLC,30.4 µM
same,GI50,HOP-92 NSCLC,4.41 µM
same,TGI,HOP-92 NSCLC,22 µM
same,GI50,HS 578T breast,6.67 µM
same,TGI,HS 578T breast,38.9 µM
same,GI50,HT29 colon,12.7 µM
same,TGI,HT29 colon,30.4 µM
same,GI50,IGROV1 ovarian,7.85 µM
same,TGI,IGROV1 ovarian,23.1 µM
same,GI50,K-562 leukemia,6.15 µM
same,TGI,K-562 leukemia,37.1 µM
same,GI50,KM12 colon,15.3 µM
same,TGI,KM12 colon,39.7 µM
same,GI50,LOX IMVI melanoma,25.7 µM
same,TGI,LOX IMVI melanoma,> 100 µM
same,GI50,M14 melanoma,6.32 µM
same,TGI,M14 melanoma,30.3 µM
same,GI50,MALME-3M melanoma,16.3 µM
same,TGI,MALME-3M melanoma,38.2 µM
same,GI50,MCF7 breast,18.1 µM
same,TGI,MCF7 breast,65.1 µM
same,GI50,MDA-MB-231 breast,20.6 µM
same,TGI,MDA-MB-231 breast,47.2 µM
same,GI50,MDA-MB-435,6.81 µM
same,TGI,MDA-MB-435,28.2 µM
same,GI50,MDA-MB-468 breast,19.1 µM
same,TGI,MDA-MB-468 breast,59.7 µM
same,GI50,MOLT-4 leukemia,6.42 µM
same,TGI,MOLT-4 leukemia,34.2 µM
same,GI50,NCI-H226 lung,21 µM
same,TGI,NCI-H226 lung,75.5 µM
same,GI50,NCI-H23 lung,21.7 µM
same,TGI,NCI-H23 lung,54.5 µM
same,GI50,NCI-H460 lung,12.3 µM
same,TGI,NCI-H460 lung,31.5 µM
same,GI50,NCI-H522 lung,15.9 µM
same,TGI,NCI-H522 lung,33.4 µM
same,GI50,OVCAR-3 ovarian,13.7 µM
same,TGI,OVCAR-3 ovarian,35.8 µM
same,GI50,OVCAR-4 ovarian,7.68 µM
same,TGI,OVCAR-4 ovarian,44.9 µM
same,GI50,OVCAR-5 ovarian,17.1 µM
same,TGI,OVCAR-5 ovarian,31.5 µM
same,GI50,OVCAR-8 ovarian,15.9 µM
same,TGI,OVCAR-8 ovarian,66.9 µM
same,GI50,PC-3 prostate,4.79 µM
same,TGI,PC-3 prostate,37 µM
same,GI50,RPMI-8226 leukemia,6.05 µM
same,TGI,RPMI-8226 leukemia,51.3 µM
same,GI50,RXF 393 renal,13.9 µM
same,TGI,RXF 393 renal,57.7 µM
same,GI50,SF-268 CNS,13.5 µM
same,TGI,SF-268 CNS,46 µM
same,GI50,SF-295 CNS,7.34 µM
same,TGI,SF-295 CNS,26.2 µM
same,GI50,SF-539 CNS,6.79 µM
same,TGI,SF-539 CNS,22.2 µM
same,GI50,SK-MEL-2 melanoma,15.6 µM
same,TGI,SK-MEL-2 melanoma,35.7 µM
same,GI50,SK-MEL-28 melanoma,7.17 µM
same,TGI,SK-MEL-28 melanoma,21.6 µM
same,GI50,SK-MEL-5 melanoma,12 µM
same,TGI,SK-MEL-5 melanoma,27 µM
same,GI50,SK-OV-3 ovarian,20 µM
same,TGI,SK-OV-3 ovarian,41.2 µM
same,GI50,SN12C renal,9.73 µM
same,TGI,SN12C renal,29.7 µM
same,GI50,SNB-19 CNS,6.76 µM
same,TGI,SNB-19 CNS,20.5 µM
same,GI50,SNB-75 CNS,11.2 µM
same,TGI,SNB-75 CNS,44.8 µM
same,GI50,SR leukemia,13.7 µM
same,TGI,SR leukemia,58 µM
same,GI50,SW-620 colon,13.8 µM
same,TGI,SW-620 colon,34.1 µM
same,GI50,T-47D breast,13.9 µM
same,TGI,T-47D breast,59.5 µM
same,GI50,TK-10 renal,26.8 µM
same,TGI,TK-10 renal,> 100 µM
same,GI50,U251 CNS,5.98 µM
same,TGI,U251 CNS,22 µM
same,GI50,UACC-257 melanoma,18.7 µM
same,TGI,UACC-257 melanoma,50.2 µM
same,GI50,UACC-62 melanoma,11.7 µM
same,TGI,UACC-62 melanoma,24.6 µM
same,GI50,UO-31 renal,10.4 µM
same,TGI,UO-31 renal,33.9 µM
